pIC50, pKi: −log10 of the molar value. Calls of active or inactive are those of the source. The rule behind the calls is not given here.
Columns and labels:
[1] = target: T1, Bromodomain-containing protein 3 (Homo sapiens, UniProt Q15059); experiment: Binding affinity to recombinant human BRD3 BD1 (24 to 144 residues) assessed as inhibition constant by fluorescence polarization binding assay
MV4-11 = experiment: Antiproliferative activity against human MV4-11 cells assessed as cell growth inhibition measured after 3 days by CellTitre-Glo assay; assay type: functional, cell-based; settings: MV4-11, 72 h
MM1.S = experiment: Antiproliferative activity against human MM1.S cells assessed as cell growth inhibition measured after 4 days by CellTitre-Glo assay; assay type: functional, cell-based; settings: 96 h
[2] = target: T1, Bromodomain-containing protein 3; experiment: Binding affinity to recombinant human BRD3 BD2 (306 to 417 residues) assessed as inhibition constant by fluorescence polarization binding assay
Mus musculus = experiment: In vivo PROTAC activity at CRBN/BRD4-L in SCID mouse xenografted with human MM1.S cells assessed as reduction in BRD4-L protein level in tumor at 100 mg/kg, po measured after 6 hrs by Western blot analysis; assay type: functional, organism-based
[3] = target: T2, Protein cereblon/Bromodomain-containing protein 4 (Homo sapiens) (UniProt O60885+Q96SW2); experiment: PROTAC activity at CRBN/BRD4-L in human MM1.S cells assessed as induction of protein degradation at 2 nM measured after 24 hrs by Western blot analysis; assay type: cell-based
[4] = target: T3, Protein cereblon/Bromodomain-containing protein 3 (Homo sapiens) (UniProt Q15059+Q96SW2); experiment: PROTAC activity at CRBN/BRD3 in human MM1.S cells assessed as induction of protein degradation at 2 nM measured after 24 hrs by Western blot analysis; assay type: cell-based
[5] = target: T2, Protein cereblon/Bromodomain-containing protein 4 (Homo sapiens); experiment: PROTAC activity at CRBN/BRD4-S in human MM1.S cells assessed as induction of protein degradation at 2 to 10 nM measured after 24 hrs by Western blot analysis; assay type: cell-based; settings: dose 2-10 nM
[6] = target: T3, Protein cereblon/Bromodomain-containing protein 3 (Homo sapiens); experiment: PROTAC activity at CRBN/BRD3 in human MM1.S cells assessed as induction of protein degradation at 2 to 10 nM measured after 24 hrs by Western blot analysis; assay type: cell-based; settings: dose 2-10 nM
[7] = target: T2, Protein cereblon/Bromodomain-containing protein 4 (Homo sapiens); experiment: PROTAC activity at CRBN/BRD4-L in human MM1.S cells assessed as induction of protein degradation at 2 to 10 nM measured after 24 hrs by Western blot analysis; assay type: cell-based; settings: dose 2-10 nM
[8] = target: Protein cereblon/Bromodomain-containing protein 2 (Homo sapiens) (UniProt P25440+Q96SW2); experiment: PROTAC activity at CRBN/BRD2 in human MM1.S cells assessed as induction of protein degradation at 2 to 10 nM measured after 24 hrs by Western blot analysis; assay type: cell-based; settings: dose 2-10 nM
HGC-27 = experiment: Antiproliferative activity against human HGC-27 cells assessed as cell growth inhibition measured after 4 days by CCK-8 assay; assay type: functional, cell-based; settings: HGC-27, 96 h
A549 = experiment: Antiproliferative activity against human A549 cells assessed as cell growth inhibition measured after 4 days by CCK-8 assay; assay type: functional, cell-based; settings: A549, 96 h
HepG2 = experiment: Antiproliferative activity against human HepG2 cells assessed as cell growth inhibition measured after 4 days by CCK-8 assay; assay type: functional, cell-based; settings: HepG2, 96 h
MCF7 = experiment: Antiproliferative activity against human MCF7 cells assessed as cell growth inhibition measured after 4 days by CCK-8 assay; assay type: functional, cell-based; settings: MCF7, 96 h
HeLa = experiment: Antiproliferative activity against human HeLa cells assessed as cell growth inhibition measured after 4 days by CCK-8 assay; assay type: functional, cell-based; settings: 96 h

T2 sequence (Q96SW2 whole entry, looked up, other chains not shown): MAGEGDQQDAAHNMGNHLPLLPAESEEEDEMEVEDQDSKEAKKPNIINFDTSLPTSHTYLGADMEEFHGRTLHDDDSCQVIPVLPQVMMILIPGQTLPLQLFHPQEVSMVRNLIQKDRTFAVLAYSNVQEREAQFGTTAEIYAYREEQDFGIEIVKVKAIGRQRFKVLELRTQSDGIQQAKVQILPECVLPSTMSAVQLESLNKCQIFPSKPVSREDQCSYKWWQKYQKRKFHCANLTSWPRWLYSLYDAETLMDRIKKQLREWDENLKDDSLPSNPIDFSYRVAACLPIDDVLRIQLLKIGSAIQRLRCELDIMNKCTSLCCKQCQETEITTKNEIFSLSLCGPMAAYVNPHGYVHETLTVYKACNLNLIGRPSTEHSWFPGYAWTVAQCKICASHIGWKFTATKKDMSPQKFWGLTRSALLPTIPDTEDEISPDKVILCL
T1 sequence (Q15059 whole entry, the tested form may be a part): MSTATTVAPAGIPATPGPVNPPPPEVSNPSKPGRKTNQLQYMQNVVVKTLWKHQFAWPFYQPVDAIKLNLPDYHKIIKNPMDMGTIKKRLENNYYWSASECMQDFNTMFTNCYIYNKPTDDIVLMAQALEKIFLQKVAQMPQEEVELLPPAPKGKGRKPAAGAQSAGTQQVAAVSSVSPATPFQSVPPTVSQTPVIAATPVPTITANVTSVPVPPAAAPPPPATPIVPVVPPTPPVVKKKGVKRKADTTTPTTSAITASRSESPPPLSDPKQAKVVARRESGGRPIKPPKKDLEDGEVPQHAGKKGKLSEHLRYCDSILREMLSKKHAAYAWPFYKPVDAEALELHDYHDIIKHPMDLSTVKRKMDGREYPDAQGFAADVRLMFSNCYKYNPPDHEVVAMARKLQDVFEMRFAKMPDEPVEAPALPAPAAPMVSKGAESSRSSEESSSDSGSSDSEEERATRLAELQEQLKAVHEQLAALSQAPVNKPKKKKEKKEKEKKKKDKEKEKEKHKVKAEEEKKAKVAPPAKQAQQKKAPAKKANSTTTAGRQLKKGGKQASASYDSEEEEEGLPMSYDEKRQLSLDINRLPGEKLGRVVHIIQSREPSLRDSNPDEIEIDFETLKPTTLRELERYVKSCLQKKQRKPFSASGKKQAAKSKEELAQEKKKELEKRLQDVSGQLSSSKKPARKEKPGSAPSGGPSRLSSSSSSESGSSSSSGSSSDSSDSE
T3 sequence (Q15059 2-726 limits assumed): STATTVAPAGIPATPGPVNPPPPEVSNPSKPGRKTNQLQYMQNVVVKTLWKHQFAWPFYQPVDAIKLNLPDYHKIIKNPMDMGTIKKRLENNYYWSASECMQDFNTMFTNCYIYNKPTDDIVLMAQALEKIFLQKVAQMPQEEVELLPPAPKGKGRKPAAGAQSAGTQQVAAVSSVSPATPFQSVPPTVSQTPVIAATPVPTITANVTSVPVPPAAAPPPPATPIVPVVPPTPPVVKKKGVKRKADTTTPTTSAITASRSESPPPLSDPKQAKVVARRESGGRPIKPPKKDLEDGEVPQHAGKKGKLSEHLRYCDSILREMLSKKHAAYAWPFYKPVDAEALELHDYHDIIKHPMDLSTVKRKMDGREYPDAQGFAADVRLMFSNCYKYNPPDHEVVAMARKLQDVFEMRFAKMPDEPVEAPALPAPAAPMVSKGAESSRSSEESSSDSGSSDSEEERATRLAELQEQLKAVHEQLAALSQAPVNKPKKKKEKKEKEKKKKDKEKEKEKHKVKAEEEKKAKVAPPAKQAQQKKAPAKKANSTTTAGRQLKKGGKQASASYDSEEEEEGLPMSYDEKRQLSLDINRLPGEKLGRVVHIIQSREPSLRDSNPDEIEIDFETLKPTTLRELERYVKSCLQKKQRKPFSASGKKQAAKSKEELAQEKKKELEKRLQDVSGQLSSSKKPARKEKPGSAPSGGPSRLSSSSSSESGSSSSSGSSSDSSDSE
T3 sequence (Q96SW2 whole entry partner): as the sequence (Q96SW2 whole entry, looked up, other chains not shown) above
Chain of Protein cereblon/Bromodomain-containing protein 2 (Homo sapiens) (P25440 whole entry, looked up): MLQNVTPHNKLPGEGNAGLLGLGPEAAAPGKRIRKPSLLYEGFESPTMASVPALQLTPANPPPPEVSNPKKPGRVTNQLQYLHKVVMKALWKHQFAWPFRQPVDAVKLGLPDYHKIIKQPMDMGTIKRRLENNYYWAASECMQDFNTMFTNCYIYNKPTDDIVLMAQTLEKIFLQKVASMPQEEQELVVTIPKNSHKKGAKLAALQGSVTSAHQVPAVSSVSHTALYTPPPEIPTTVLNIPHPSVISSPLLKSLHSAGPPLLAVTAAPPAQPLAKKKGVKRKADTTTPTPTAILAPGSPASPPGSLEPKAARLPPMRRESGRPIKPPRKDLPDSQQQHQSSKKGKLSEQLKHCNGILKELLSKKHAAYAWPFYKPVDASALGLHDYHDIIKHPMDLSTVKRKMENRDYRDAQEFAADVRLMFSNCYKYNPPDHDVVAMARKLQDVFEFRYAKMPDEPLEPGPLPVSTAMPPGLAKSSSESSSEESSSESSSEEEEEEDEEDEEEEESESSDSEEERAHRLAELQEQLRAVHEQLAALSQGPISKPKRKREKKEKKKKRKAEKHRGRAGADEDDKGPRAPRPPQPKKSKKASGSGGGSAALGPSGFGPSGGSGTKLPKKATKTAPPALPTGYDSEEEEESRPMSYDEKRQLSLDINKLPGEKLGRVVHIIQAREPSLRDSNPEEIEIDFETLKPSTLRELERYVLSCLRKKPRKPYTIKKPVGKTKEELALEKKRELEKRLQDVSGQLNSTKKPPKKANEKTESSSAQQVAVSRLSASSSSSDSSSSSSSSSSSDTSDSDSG
Chain of Protein cereblon/Bromodomain-containing protein 2 (Homo sapiens) (Q96SW2 whole entry, looked up): as the sequence (Q96SW2 whole entry, looked up, other chains not shown) above

Row | Structure (SMILES) | pKi [1] | pIC50 (MV4-11) | pIC50 (MM1.S) | pKi [2] | other results
1 | Cc1nnc2n1-c1ccc(-c3ccc(CNCCCC#Cc4cccc5c4CN(C4CCC(=O)NC4=O)C5=O)cc3)cc1C(Nc1ccc(Cl)cc1)CC2 (configuration not stated) | 7.32 | 6.19 | 5.88 | 8.30 | –
2 | Cc1nnc2n1-c1ccc(-c3ccc(CNCCC#Cc4cccc5c4CN(C4CCC(=O)NC4=O)C5=O)cc3)cc1C(Nc1ccc(Cl)cc1)CC2 (configuration not stated) | 7.65 | 5.81 | 5.47 | 8.24 | –
3 | CNCc1ccc(-c2ccc3c(c2)C(Nc2ccc(Cl)cc2)CCc2nnc(C)n2-3)cc1 (configuration not stated) | 6.57 | 5.91 | 5.42 | 7.33 | –
4 | Cc1nnc2n1-c1ccc(-c3ccc(CNCCCc4cccc5c4CN(C4CCC(=O)NC4=O)C5=O)cc3)cc1C(Nc1ccc(Cl)cc1)CC2 (configuration not stated) | 7.73 | 5.99 | 5.55 | 8.61 | Activity [5]: inactive; Activity [6]: inactive; Activity [7]: inactive; Activity [8]: inactive

The next compounds have a higher pIC50 (MV4-11) than those just listed; values first:

Row | pKi [1] | pIC50 (MV4-11) | pIC50 (MM1.S) | pKi [2] | Structure (SMILES) | other results
5 | 7.92 | 7.15 | 6.80 | 8.33 | Cc1nnc2n1-c1ccc(-c3ccc(CNCCCCC#Cc4cccc5c4CN(C4CCC(=O)NC4=O)C5=O)cc3)cc1C(Nc1ccc(Cl)cc1)CC2 (configuration not stated) | –
6 | – | 6.57 | 5.63 | – | Cc1nnc2n1-c1ccc(-c3cnn(C)c3)cc1[C@H](Nc1ccc(Cl)cc1)CC2 | Activity (Mus musculus): Active
7 | 8.17 | 9.40 | 7.50 | 8.67 | Cc1nnc2n1-c1ccc(-c3ccc(CNCCCCCCc4cccc5c4CN(C4CCC(=O)NC4=O)C5=O)cc3)cc1C(Nc1ccc(Cl)cc1)CC2 (configuration not stated) | Activity [3]: Active; Activity [4]: Active
8 | 7.88 | 6.23 | 5.58 | 8.65 | Cc1nnc2n1-c1ccc(-c3ccc(CNCCCCc4cccc5c4CN(C4CCC(=O)N(C)C4=O)C5=O)cc3)cc1C(Nc1ccc(Cl)cc1)CC2 (configuration not stated) | pIC50 (HGC-27): 5.22; pIC50 (A549): 5.07; pIC50 (HepG2): 5.12; pIC50 (MCF7): 5.32; pIC50 (HeLa): 5.49

— ChEMBL document CHEMBL5321219, “Selective degradation of cellular BRD3 and BRD4-L promoted by PROTAC molecules in six cancer cell lines” (Eur J Med Chem, 2023)
